Literature values as cited in patent US8461106B2, “Biofilm prevention using lactoferrin” (The Trustees of the University of Pennsylvania, priority 2007, dated 2013).

System: pseudomonas biofilms

Substance: gentamicin
- MBEC for pseudomonas biofilms relative to MIC for planktonic pseudomonas: 60 fold
